Measured values as given in patent US8962674B2 (Tokyo Institute of Technology, priority 2006, dated 2015).

Compound	melting point
COc1ccc(/C=C/C(=O)CC(=O)/C=C/c2c[nH]c3cccc([N+](=O)[O-])c23)cc1O [CU463, (1E,6E)-1-(3-hydroxy-4-methoxyphenyl)-7-(4-nitro-1H-indol-3-yl)hepta-1,6-diene-3,5-dione]	226 to 233 °C
COc1ccc(/C=C/C(=O)CC(=O)/C=C/c2cc(Cl)cc(Cl)c2O)cc1O [CU276, (1E,6E)-1-(3,5-dichloro-2-hydroxyphenyl)-7-(3-hydroxy-4-methoxyphenyl)hepta-1,6-diene-3,5-dione]	212 to 214 °C
CCN(CC)c1ccc(/C=C/C(=O)CC(=O)/C=C/c2ccc(N(CC)CC)cc2OCC=C(C)C)c(OCC=C(C)C)c1 [CU431, (1E,6E)-1,7-bis(4-diethylamino-2-prenyloxyphenyl)hepta-1,6-diene-3,5-dione]	107 to 113 °C
CCn1c2ccccc2c2cc(CCC(=O)CC(=O)CCc3ccc(OC)c(O)c3)ccc21 [CU508, 1-(9-ethyl-9H-carbazol-3-yl)-7-(3-hydroxy-4-methoxyphenyl)heptane-3,5-dione]	97 to 100 °C
O=C(/C=C/c1ccc(O)cc1)CC(=O)/C=C/c1ccc(O)c(Cl)c1 [CU042, (1E,6E)-1-(3-chloro-4-hydroxyphenyl)-7-(4-hydroxyphenyl)hepta-1,6-diene-3,5-dione]	184 to 190 °C
O=C(/C=C/c1ccc(O)cc1Cl)CC(=O)/C=C/c1ccc(O)cc1Cl [CU362, (1E,6E)-1,7-bis(2-chloro-4-hydroxyphenyl)hepta-1,6-diene-3,5-dione]	248 to 254 °C
O=C(/C=C/c1cccnc1N1CCOCC1)CC(=O)/C=C/c1cccnc1N1CCOCC1 [CU366, (1E,6E)-1,7-bis(2-morpholinopyridin-3-yl)hepta-1,6-diene-3,5-dione]	192 to 195 °C
Cc1ccc(S(=O)(=O)n2ccc3ccc(/C=C/C(=O)CC(=O)/C=C/c4ccc(O)cc4)cc32)cc1 [CU404, (1E,6E)-1-(4-hydroxyphenyl)-7-(1-tosyl-1H-indol-6-yl)hepta-1,6-diene-3,5-dione]	107 to 112 °C
COc1cc(/C=C/C(=O)CC(=O)/C=C/c2ccc(O)cc2)ccc1[N+](=O)[O-] [CU050, (1E,6E)-1-(4-hydroxyphenyl)-7-(3-methoxy-4-nitrophenyl)hepta-1,6-diene-3,5-dione]	190 to 192 °C
COc1ccc(/C=C/C(=O)CC(=O)/C=C/c2ccc(SC)cc2)cc1O [CU216, (1E,6E)-1-(3-hydroxy-4-methoxyphenyl)-7-(4-methylthiophenyl)hepta-1,6-diene-3,5-dione]	158 to 162 °C
COc1cc(/C=C/C(=O)CC(=O)/C=C/c2cc(Cl)ccc2Cl)ccc1O [CU184, (1E,6E)-1-(2,5-dichlorophenyl)-7-(4-hydroxy-3-methoxyphenyl)hepta-1,6-diene-3,5-dione]	142 to 147 °C
COc1cc(/C=C/C(=O)CC(=O)/C=C/c2cc3ccccc3n2C)ccc1O [CU147, (1E,6E)-1-(4-hydroxy-3-methoxyphenyl)-7-(1-methyl-1H-indol-2-yl)hepta-1,6-diene-3,5-dione]	167 to 170 °C
O=C(/C=C/c1ccc(O)cc1)CC(=O)/C=C/c1ccc2oc(=O)ccc2c1 [CU445, (1E,6E)-1-(4-hydroxyphenyl)-7-(coumarin-6-yl)hepta-1,6-diene-3,5-dione]	240 to 246 °C
O=C(/C=C/c1ccc(O)cc1)CC(=O)/C=C/c1ccc2[nH]nnc2c1 [CU346, (1E,6E)-1-(1H-benzotriazol-5-yl)-7-(4-hydroxyphenyl)hepta-1,6-diene-3,5-dione]	211 to 216 °C
O=C(/C=C/c1ccc(O)cc1)CC(=O)/C=C/c1cc(O)ccc1-c1ccccc1 [CU526, (1E,6E)-1-(4-hydroxybiphenyl-2-yl)-7-(4-hydroxyphenyl)hepta-1,6-diene-3,5-dione]	179 to 186 °C
O=C(/C=C/c1ccc(O)cc1)CC(=O)/C=C/c1cc(F)cc(F)c1 [CU468, (1E,6E)-1-(3,5-difluorophenyl)-7-(4-hydroxyphenyl)hepta-1,6-diene-3,5-dione]	153 to 156 °C
COc1cc(/C=C/C(=O)CC(=O)/C=C/c2cccc(O)c2O)ccc1O [CU096, (1E,6E)-1-(2,3-dihydroxyphenyl)-7-(4-hydroxy-3-methoxyphenyl)hepta-1,6-diene-3,5-dione]	82 to 89 °C
O=C(/C=C/c1ccc(O)cc1)CC(=O)/C=C/c1cc(Cl)cc(Cl)c1 [CU201, (1E,6E)-1-(3,5-dichlorophenyl)-7-(4-hydroxyphenyl)hepta-1,6-diene-3,5-dione]	165 to 172 °C
Cn1c(/C=C/C(=O)CC(=O)/C=C/c2cc3ccccc3n2C)cc2ccccc21 [CU409, (1E,6E)-1,7-bis(1-methyl-1H-indol-2-yl)hepta-1,6-diene-3,5-dione]	189 to 196 °C
COc1ccc(/C=C/C(=O)CC(=O)/C=C/c2ccccc2O)cc1O [CU084, (1E,6E)-1-(2-hydroxyphenyl)-7-(3-hydroxy-4-methoxyphenyl)hepta-1,6-diene-3,5-dione]	90 to 96 °C
CS(=O)(=O)Oc1ccccc1/C=C/C(=O)CC(=O)/C=C/c1ccc(O)cc1 [CU483, (1E,6E)-1-(4-hydroxyphenyl)-7-[2-(methylsulfonyloxy)phenyl]hepta-1,6-diene-3,5-dione]	163 to 167 °C
COc1ccc(/C=C/C(=O)CC(=O)/C=C/c2cn(C)c3ccccc23)cc1O [CU125, (1E,6E)-1-(3-hydroxy-4-methoxyphenyl)-7-(1-methyl-1H-indol-3-yl)hepta-1,6-diene-3,5-dione]	162 to 166 °C
COC(=O)c1ccccc1/C=C/C(=O)CC(=O)/C=C/c1ccc(O)cc1 [CU478, (1E,6E)-1-(4-hydroxyphenyl)-7-[2-(methoxycarbonyl)phenyl]hepta-1,6-diene-3,5-dione]	145 to 150 °C
COc1cc(/C=C/C(=O)CC(=O)/C=C/c2ccc(O)cc2OC)ccc1O [CU085, (1E,6E)-1-(4-hydroxy-2-methoxyphenyl)-7-(4-hydroxy-3-methoxyphenyl)hepta-1,6-diene-3,5-dione]	203 to 208 °C
CCCN(CCC)C(=O)c1cccc(/C=C/C(=O)CC(=O)/C=C/c2ccc(O)cc2)c1 [CU474, (1E,6E)-1-[3-(di-n-propylaminocarbonyl)phenyl]-7-(4-hydroxyphenyl)hepta-1,6-diene-3,5-dione]	159 to 165 °C
O=C(/C=C/c1ccc(O)cc1)CC(=O)/C=C/c1ccccc1N1CCNCC1.O=C(O)C(F)(F)F.O=C(O)C(F)(F)F	139 to 150 °C
COc1ccc(/C=C/C(=O)CC(=O)/C=C/c2ccc(N(C)C)cc2[N+](=O)[O-])cc1O [CU197, (1E,6E)-1-(4-dimethylamino-2-nitrophenyl)-7-(3-hydroxy-4-methoxyphenyl)hepta-1,6-diene-3,5-dione]	183 to 186 °C
CN(C)c1ccc(/C=C/C(=O)CC(=O)CCc2ccc(O)cc2)c2ccccc12 [CU518, (E)-1-(4-dimethylaminonaphthalen-1-yl)-7-(4-hydroxyphenyl)hept-1-ene-3,5-dione]	44 to 49 °C
COc1ccc(/C=C/C(=O)CC(=O)/C=C/c2ccc(O)c(Cl)c2)cc1O [CU044, (1E,6E)-1-(3-chloro-4-hydroxyphenyl)-7-(3-hydroxy-4-methoxyphenyl)hepta-1,6-diene-3,5-dione]	195 to 197 °C
